Assay results from patent US20250002954A1, “Novel Compound, Use Thereof, and Method for Producing Same, and Compound-Containing Composition, Method for Producing 4-Trehalosamine, and Microorganism” (Microbial Chemistry Research Foundation, priority 2021, published 2025).

Columns and labels:
[1] = Starch aging inhibiting effect, enzyme assay 5 (wheat flour gel); settings: final concentration 10% or 15% (w/w), 48 and 96 hours
Method: Starch aging inhibiting effect was determined in a similar manner to the <Enzyme assay 3> except that potato starch was changed to wheat flour (organic wheat flour, from Kanazawa Daichi) in the “—Preparation of measurement samples—” of the <Enzyme assay 3>. The results for the 10% (w/w) final concentration of the different sugars are shown in FIG. 15I, and the results for the 15% (w/w) final concentration of the different sugars are shown in FIG. 15J.

[2] = Dynamic viscoelasticity measurement of corn starch gel; assay type: physicochemical; settings: corn starch gel with 10% aqueous solution, 4° C., after 96 hours
Method: In 20-mL glass vials, corn starch (manufactured by FUJIFILM Wako Pure Chemical Corporation) was mixed with each of the 10% aqueous solution of 4-trehalosamine (4TA), 10% aqueous solution of trehalose (TRH), 10% aqueous solution of sucrose (SCR), and 10% aqueous solution of glycerol (GOL), which are the test samples, or water as control to a final concentration of 15% (w/w) and uniformly suspended, and the suspensions were autoclaved at 121° C. for 20 minutes to gel them. For each of them, 0-hour sample and 96-hour sample were prepared.
After cooling them to room temperature, dynamic viscoelasticity measurement was performed on the 0-hour sample within 4 hours. The 96-hour sample was left to stand at 4° C. for 96 hours and then subjected to dynamic viscoelasticity measurement.
The dynamic viscoelasticity measurement was performed using a MCR300 rheometer (manufactured by Physica, Stuttgart, Germany) under the condition of the gap of a 25-mm parallel plate measurement tool being 1.0 mm. Under the conditions of a fixed frequency of 1.0 Hz, a strain amplitude of 1%, and 25° C., a storage modulus (G′) and a loss modulus (G″) were measured and a loss tangent (tan δ=G″/G′) was calculated. In FIG. 15K, the value of tan δ is indicated on the vertical axis (n=5, mean±S.D.).

human trehalase = experiment: Degradation by human trehalase (cell extract liquids of KP4 and KP4-TREH, LC-MS persistence rate); assay type: in vitro ADME; settings: 20 μg/mL, 37° C., up to 24 hours; for degradation by cell extract liquid of human pancreatic cancer cells KP4: control cells
Method: In order to perform a degradation experiment with human trehalase, high expression strains of the same were made.
This plasmid was introduced into various kinds of cultured human cells using Viafect (manufactured by Promega), and the expression level of transient trehalase protein was analyzed by western blotting with 1/2,000-diluted anti-trehalase antibody (manufactured by Santa Cruz). […] Human pancreatic cancer cells KP4 into which pSF-TREH 3-3 plasmid had been introduced as described above was diluted to one cell or less per well, and applied to a 96-well microplate. They were cultured on DMEM culture medium containing 400 μg/mL of G418 (manufactured by Thermo Fisher Scientific), and clones with stable trehalase expression were selected and amplified. Ten strains of KP4-TREH which were the clones with the highest trehalase expression were chosen for use in the subsequent experiments.
Degradation of 4-trehalosamine and trehalose by cell extract liquids of human pancreatic cancer cells KP4 and 10 strains of KP4-TREH, which are cells with high human trehalase expression, was examined.
Using DMEM culture medium, each of the human pancreatic cancer cells KP4 and the 10 strains of KP4-TREH was amplified in a CO2 incubator at 37° C. until they were confluent. After that, the culture medium was removed and washed with PBS (manufactured by Takara Bio Inc.) three times, and cells were collected with a cell scraper in the PBS. After centrifuging the collected cell suspension at 400×g for 3 minutes and removing supernatant, 135 mM citric acid buffer solution (pH 5.7) containing 0.5% Triton (registered trademark) in an amount 15 times the precipitated cells was added and homogenized. The cells were centrifuged at 21,300×g for 10 minutes and the respective supernatants were collected. Aqueous solution of 4-trehalosamine or aqueous solution of trehalose was added at 20 μg/mL to each supernatant and they were left to stand at 37° C. At 0 hours, 2 hours, 8 hours, or 24 hours from the start of reaction, the reaction solutions were collected, was diluted with methanol to 1/10, and centrifuged at 21,300×g for 10 minutes. The respective supernatants were collected and LC-MS analysis was performed under similar conditions to test example 1 to determine the persistence rates of 4-trehalosamine and trehalose in the reaction solution (4TA C) of 4-trehalosamine and the cell extract liquid of human pancreatic cancer cells KP4, the reaction solution (4TA T) of 4-trehalosamine and the cell extract liquid of 10 strains of KP4-TREH, the reaction solution (TRH C) of trehalose and the cell extract liquid of human pancreatic cancer cells KP4, and the reaction solution (TRH T) of trehalose and the cell extract liquid of 10 strains of KP4-TREH.

SMILES | rate of degradation by β-amylase (starch aging inhibiting effect) [1] | change in loss tangent (tan δ) value [2] | degradation by cell extract liquid of 10 strains of KP4-TREH (high human trehalase expression) (human trehalase) | degradation by cell extract liquid of human pancreatic cancer cells KP4 (human trehalase)
N[C@H]1[C@H](O)[C@@H](O)[C@@H](O[C@H]2O[C@H](CO)[C@@H](O)[C@H](O)[C@H]2O)O[C@@H]1CO [4-trehalosamine] | significantly high rate of degradation by β-amylase at and after 48 hours compared to the other gels | little change or a slight increase in the loss tangent value | almost no degradation or decrease | neither trehalose nor 4-trehalosamine was degraded
OC[C@H]1O[C@H](O[C@H]2O[C@H](CO)[C@@H](O)[C@H](O)[C@H]2O)[C@H](O)[C@@H](O)[C@@H]1O [trehalose, reference compound] | – | – | almost disappeared after 8 hours | neither trehalose nor 4-trehalosamine was degraded
